Measurements taken from PubChem BioAssay AID2060903 (Molecular Pharmacology Branch, DTP, NCI, 2025).

Tested on: 377384-186-R-J1-PDC complex spheroid viability
Experiment: Anticancer human tumor 377384-186-R-J1-PDC patient-derived pancreatic carcinoma cell line growth inhibition [RAS]
Conditions: for IC50: curve of first compound; for viability, T/C: stronger effect = lower value
Procedure, shortened: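 Agents were tested in combination matrices in half-log decrements from a top concentration at or near clinical Cmax (10 microM if undetermined). Targets were multi-cell spheroids of tumour lines plus HUVEC and MSC stromal cells.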

[1] = second compound 0.000949 µM, first compound 0.0316 µM
[2] = second compound 0.000949 µM, first compound 0.1 µM
[3] = second compound 0.000949 µM, first compound 0.316 µM
[4] = second compound 0.000949 µM, first compound 1 µM
[5] = second compound 0.000949 µM, first compound 3.16 µM
[6] = second compound 0.000949 µM, first compound 10 µM
[7] = second compound 0.003 µM, first compound 0.0316 µM
[8] = second compound 0.003 µM, first compound 0.1 µM
[9] = second compound 0.003 µM, first compound 0.316 µM
[10] = second compound 0.003 µM, first compound 1 µM
[11] = second compound 0.003 µM, first compound 3.16 µM
[12] = second compound 0.003 µM, first compound 10 µM
[13] = second compound 0.00949 µM, first compound 0.0316 µM
[14] = second compound 0.00949 µM, first compound 0.1 µM
[15] = second compound 0.00949 µM, first compound 0.316 µM
[16] = second compound 0.00949 µM, first compound 1 µM
[17] = second compound 0.00949 µM, first compound 3.16 µM
[18] = second compound 0.00949 µM, first compound 10 µM
[19] = second compound 0.03 µM, first compound 0.0316 µM
[20] = second compound 0.03 µM, first compound 0.1 µM
[21] = second compound 0.03 µM, first compound 0.316 µM
[22] = second compound 0.03 µM, first compound 1 µM
[23] = second compound 0.03 µM, first compound 3.16 µM
[24] = second compound 0.03 µM, first compound 10 µM
[25] = second compound 0.0949 µM, first compound 0.0316 µM
[26] = second compound 0.0949 µM, first compound 0.1 µM
[27] = second compound 0.0949 µM, first compound 0.316 µM
[28] = second compound 0.0949 µM, first compound 1 µM
[29] = second compound 0.0949 µM, first compound 3.16 µM
[30] = second compound 0.0949 µM, first compound 10 µM
[31] = second compound 0.3 µM, first compound 0.0316 µM
[32] = second compound 0.3 µM, first compound 0.1 µM
[33] = second compound 0.3 µM, first compound 0.316 µM
[34] = second compound 0.3 µM, first compound 1 µM
[35] = second compound 0.3 µM, first compound 3.16 µM
[36] = second compound 0.3 µM, first compound 10 µM
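Note: spheroids exposed to compounds for seven days before readout.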

Question: Which IC50 (second compound 0.000949 µM) does the source give for `CC1(O)CCCC1n1c(=O)c(C(F)F)cc2cnc(NC3CCN(S(C)(=O)=O)CC3)nc21` (stereo unspecified) + CCn1c(-c2cc(N3CCN(C)CC3)cnc2C(C)OC)c2c3cc(ccc31)-c1csc(n1)CC(NC(=O)C1CC1C)C(=O)N1CCCC(N1)C(=O)OCC(C)(C)C2 here?
Answer: < 31.6 nM

Question: And the IC50 (second compound 0.003 µM)?
Answer: < 31.6 nM

Question: And the IC50 (second compound 0.00949 µM)?
Answer: < 31.6 nM

Question: And the IC50 (second compound 0.03 µM)?
Answer: < 31.6 nM

Question: And the IC50 (second compound 0.0949 µM)?
Answer: < 31.6 nM

Question: What about the IC50 (second compound 0.3 µM) of the same molecule?
Answer: < 31.6 nM

Question: And the viability, T/C [1]?
Answer: 46.6%

Question: What about the viability, T/C [2] of the same molecule?
Answer: 24.9%

Question: And the viability, T/C [3]?
Answer: 16.1%

Question: And the viability, T/C [4]?
Answer: 14.2%

Question: What about the viability, T/C [5] of the same molecule?
Answer: 18.5%

Question: And the viability, T/C [6]?
Answer: 4.43%

Question: What about the viability, T/C [7] of the same molecule?
Answer: 20.3%

Question: What about the viability, T/C [8] of the same molecule?
Answer: 10.9%

Question: What about the viability, T/C [9] of the same molecule?
Answer: 9.42%

Question: And the viability, T/C [10]?
Answer: 11.9%

Question: What about the viability, T/C [11] of the same molecule?
Answer: 13.4%

Question: What about the viability, T/C [12] of the same molecule?
Answer: 2.79%

Question: What about the viability, T/C [13] of the same molecule?
Answer: 4.59%

Question: What about the viability, T/C [14] of the same molecule?
Answer: 4.26%

Question: What about the viability, T/C [15] of the same molecule?
Answer: 4.8%

Question: And the viability, T/C [16]?
Answer: 4.95%

Question: What about the viability, T/C [17] of the same molecule?
Answer: 6.03%

Question: And the viability, T/C [18]?
Answer: 2.54%

Question: What about the viability, T/C [19] of the same molecule?
Answer: 2.77%

Question: What about the viability, T/C [20] of the same molecule?
Answer: 2.5%

Question: What about the viability, T/C [21] of the same molecule?
Answer: 3.09%

Question: What about the viability, T/C [22] of the same molecule?
Answer: 3.54%

Question: What about the viability, T/C [23] of the same molecule?
Answer: 3.12%

Question: What about the viability, T/C [24] of the same molecule?
Answer: 2%

Question: What about the viability, T/C [25] of the same molecule?
Answer: 1.91%

Question: And the viability, T/C [26]?
Answer: 2.25%

Question: What about the viability, T/C [27] of the same molecule?
Answer: 2.46%

Question: And the viability, T/C [28]?
Answer: 2.54%

Question: And the viability, T/C [29]?
Answer: 1.98%

Question: And the viability, T/C [30]?
Answer: 2.3%

Question: What about the viability, T/C [31] of the same molecule?
Answer: 2%

Question: What about the viability, T/C [32] of the same molecule?
Answer: 2.25%

Question: What about the viability, T/C [33] of the same molecule?
Answer: 2.49%

Question: And the viability, T/C [34]?
Answer: 2.5%

Question: What about the viability, T/C [35] of the same molecule?
Answer: 1.75%

Question: What about the viability, T/C [36] of the same molecule?
Answer: 1.85%

Question: Which IC50 (second compound 0.000949 µM) does the source give for `CCC(CC)c1cc(NC2CCC(N)C2)n2nccc2n1` (stereo unspecified) + CCn1c(-c2cc(N3CCN(C)CC3)cnc2C(C)OC)c2c3cc(ccc31)-c1csc(n1)CC(NC(=O)C1CC1C)C(=O)N1CCCC(N1)C(=O)OCC(C)(C)C2 here?
Answer: < 31.6 nM

Question: What about the IC50 (second compound 0.003 µM) of the same molecule?
Answer: < 31.6 nM

Question: And the IC50 (second compound 0.00949 µM)?
Answer: < 31.6 nM

Question: What about the IC50 (second compound 0.03 µM) of the same molecule?
Answer: < 31.6 nM

Question: What about the IC50 (second compound 0.0949 µM) of the same molecule?
Answer: < 31.6 nM

Question: What about the IC50 (second compound 0.3 µM) of the same molecule?
Answer: < 31.6 nM

Question: What about the viability, T/C [1] of the same molecule?
Answer: 48.2%

Question: And the viability, T/C [2]?
Answer: 55%

Question: And the viability, T/C [3]?
Answer: 46.9%

Question: And the viability, T/C [4]?
Answer: 32.9%

Question: What about the viability, T/C [5] of the same molecule?
Answer: 0.81%

Question: And the viability, T/C [6]?
Answer: 2.3%

Question: And the viability, T/C [7]?
Answer: 21.7%

Question: What about the viability, T/C [8] of the same molecule?
Answer: 16.6%

Question: What about the viability, T/C [9] of the same molecule?
Answer: 20.9%

Question: What about the viability, T/C [10] of the same molecule?
Answer: 10.7%

Question: And the viability, T/C [11]?
Answer: 0.83%

Question: And the viability, T/C [12]?
Answer: 2.38%

Question: What about the viability, T/C [13] of the same molecule?
Answer: 4.86%

Question: And the viability, T/C [14]?
Answer: 4.6%

Question: And the viability, T/C [15]?
Answer: 5.64%

Question: What about the viability, T/C [16] of the same molecule?
Answer: 3.71%

Question: And the viability, T/C [17]?
Answer: 0.61%

Question: What about the viability, T/C [18] of the same molecule?
Answer: 3.05%

Question: What about the viability, T/C [19] of the same molecule?
Answer: 2.61%

Question: And the viability, T/C [20]?
Answer: 2.47%

Question: What about the viability, T/C [21] of the same molecule?
Answer: 2.47%

Question: What about the viability, T/C [22] of the same molecule?
Answer: 2.01%

Question: And the viability, T/C [23]?
Answer: 0.73%

Question: What about the viability, T/C [24] of the same molecule?
Answer: 1.89%

Question: What about the viability, T/C [25] of the same molecule?
Answer: 1.88%

Question: And the viability, T/C [26]?
Answer: 1.8%

Question: What about the viability, T/C [27] of the same molecule?
Answer: 1.76%

Question: And the viability, T/C [28]?
Answer: 2.22%

Question: And the viability, T/C [29]?
Answer: 0.82%

Question: What about the viability, T/C [30] of the same molecule?
Answer: 2.4%

Question: And the viability, T/C [31]?
Answer: 2.16%

Question: What about the viability, T/C [32] of the same molecule?
Answer: 1.88%

Question: What about the viability, T/C [33] of the same molecule?
Answer: 1.75%

Question: What about the viability, T/C [34] of the same molecule?
Answer: 1.54%

Question: What about the viability, T/C [35] of the same molecule?
Answer: 0.54%

Question: What about the viability, T/C [36] of the same molecule?
Answer: 1.98%

Question: For `CCN1CCN(Cc2ccc(Nc3ncc(F)c(-c4cc(F)c5nc(C)n(C(C)C)c5c4)n3)nc2)CC1` + CCn1c(-c2cc(N3CCN(C)CC3)cnc2C(C)OC)c2c3cc(ccc31)-c1csc(n1)CC(NC(=O)C1CC1C)C(=O)N1CCCC(N1)C(=O)OCC(C)(C)C2, which IC50 (second compound 0.000949 µM) is on record?
Answer: < 3.16 nM

Question: What about the IC50 (second compound 0.003 µM) of the same molecule?
Answer: < 3.16 nM

Question: And the IC50 (second compound 0.00949 µM)?
Answer: < 3.16 nM

Question: What about the IC50 (second compound 0.03 µM) of the same molecule?
Answer: < 3.16 nM

Question: And the IC50 (second compound 0.0949 µM)?
Answer: < 3.16 nM

Question: What about the IC50 (second compound 0.3 µM) of the same molecule?
Answer: < 3.16 nM

Question: What about the viability, T/C (second compound 0.000949 µM, first compound 0.00316 µM) of the same molecule?
Answer: 49.8%

Question: What about the viability, T/C (second compound 0.000949 µM, first compound 0.01 µM) of the same molecule?
Answer: 45%

Question: What about the viability, T/C [1] of the same molecule?
Answer: 35.2%

Question: And the viability, T/C [2]?
Answer: 24.1%

Question: What about the viability, T/C [3] of the same molecule?
Answer: 16.6%

Question: And the viability, T/C [4]?
Answer: 11.2%

Question: What about the viability, T/C (second compound 0.003 µM, first compound 0.00316 µM) of the same molecule?
Answer: 15.5%

Question: And the viability, T/C (second compound 0.003 µM, first compound 0.01 µM)?
Answer: 14.5%

Question: And the viability, T/C [7]?
Answer: 15.9%

Question: What about the viability, T/C [8] of the same molecule?
Answer: 10.2%

Question: What about the viability, T/C [9] of the same molecule?
Answer: 6.69%

Question: What about the viability, T/C [10] of the same molecule?
Answer: 4.94%

Question: What about the viability, T/C (second compound 0.00949 µM, first compound 0.00316 µM) of the same molecule?
Answer: 6.06%

Question: And the viability, T/C (second compound 0.00949 µM, first compound 0.01 µM)?
Answer: 5.48%

Question: And the viability, T/C [13]?
Answer: 4.58%

Question: What about the viability, T/C [14] of the same molecule?
Answer: 3.84%

Question: What about the viability, T/C [15] of the same molecule?
Answer: 3.67%

Question: What about the viability, T/C [16] of the same molecule?
Answer: 2.8%

Question: What about the viability, T/C (second compound 0.03 µM, first compound 0.00316 µM) of the same molecule?
Answer: 3.02%

Question: And the viability, T/C (second compound 0.03 µM, first compound 0.01 µM)?
Answer: 2.33%

Question: And the viability, T/C [19]?
Answer: 2.87%

Question: What about the viability, T/C [20] of the same molecule?
Answer: 2.54%

Question: And the viability, T/C [21]?
Answer: 2.06%

Question: And the viability, T/C [22]?
Answer: 2.27%

Question: What about the viability, T/C (second compound 0.0949 µM, first compound 0.00316 µM) of the same molecule?
Answer: 1.82%

Question: What about the viability, T/C (second compound 0.0949 µM, first compound 0.01 µM) of the same molecule?
Answer: 1.82%

Question: And the viability, T/C [25]?
Answer: 1.85%

Question: What about the viability, T/C [26] of the same molecule?
Answer: 2.2%

Question: What about the viability, T/C [27] of the same molecule?
Answer: 2.06%

Question: What about the viability, T/C [28] of the same molecule?
Answer: 1.76%

Question: And the viability, T/C (second compound 0.3 µM, first compound 0.00316 µM)?
Answer: 1.71%

Question: And the viability, T/C (second compound 0.3 µM, first compound 0.01 µM)?
Answer: 3.5%

Question: What about the viability, T/C [31] of the same molecule?
Answer: 2.34%

Question: And the viability, T/C [32]?
Answer: 1.78%

Question: What about the viability, T/C [33] of the same molecule?
Answer: 2.27%

Question: What about the viability, T/C [34] of the same molecule?
Answer: 1.13%
